Kd and activity data for two compounds are collected here from article PMC7088215 (The Protein Journal, 2015).

The term Kd denotes the concentration at which binding is half-saturated.

The target in assay [1] is T1, SaPriA (PriA helicase) (Staphylococcus aureus, UniProt Q2G266).
T1 sequence (Q2G266 1-802): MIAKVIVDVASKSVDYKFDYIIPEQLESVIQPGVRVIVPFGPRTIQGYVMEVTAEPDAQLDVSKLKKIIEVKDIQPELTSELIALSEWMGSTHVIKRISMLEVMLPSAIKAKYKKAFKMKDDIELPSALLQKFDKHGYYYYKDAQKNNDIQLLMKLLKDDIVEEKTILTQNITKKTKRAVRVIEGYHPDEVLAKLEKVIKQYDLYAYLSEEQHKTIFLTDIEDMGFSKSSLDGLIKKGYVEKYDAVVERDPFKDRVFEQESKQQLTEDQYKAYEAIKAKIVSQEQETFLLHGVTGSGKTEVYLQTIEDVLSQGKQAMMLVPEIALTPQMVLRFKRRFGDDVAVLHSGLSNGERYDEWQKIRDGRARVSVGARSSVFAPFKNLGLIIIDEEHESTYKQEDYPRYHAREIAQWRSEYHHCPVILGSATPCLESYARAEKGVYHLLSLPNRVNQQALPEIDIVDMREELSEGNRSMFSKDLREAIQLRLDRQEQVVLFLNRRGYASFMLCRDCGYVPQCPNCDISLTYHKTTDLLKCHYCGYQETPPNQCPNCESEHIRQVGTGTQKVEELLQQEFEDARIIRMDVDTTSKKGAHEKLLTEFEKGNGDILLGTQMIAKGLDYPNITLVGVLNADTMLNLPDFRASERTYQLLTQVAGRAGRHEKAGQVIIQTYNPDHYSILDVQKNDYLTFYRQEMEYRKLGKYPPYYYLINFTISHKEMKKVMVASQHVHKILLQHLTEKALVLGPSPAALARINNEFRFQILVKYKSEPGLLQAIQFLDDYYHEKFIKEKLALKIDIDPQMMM
Description: intrinsic fluorescence quenching titration of purified SaPriA. In kind it is binding.

Assay [2] concerns the target T1, SaPriA (PriA helicase). Nature of the assay: vanadate-sensitive colorimetric ATPase assay, single concentration of […]. In kind it is biochemical. To be noted: read-out: %.

Turning to `O=c1c(O)c(-c2ccc(O)cc2)oc2cc(O)cc(O)c12` [kaempferol], at SaPriA (PriA helicase) [1], the Kd was determined as 9.1 ± 3.2 µM.

For the compound `O=c1c(O)c(-c2cc(O)c(O)c(O)c2)oc2cc(O)cc(O)c12` [myricetin], the activity at 35 µM at SaPriA (PriA helicase) [2] was 69%.
